Source: ChEMBL document CHEMBL4138146, “A Schmidt rearrangement-mediated synthesis of novel tetrahydro-benzo[1,4]diazepin-5-ones as potential anticancer and antiprotozoal agents” (Eur J Med Chem, 2017)

Tests used:
Format in all cases: functional
MDA-MB-468 = experiment: Growth inhibition of human MDA-MB-468 cells assessed as cell growth at 10 uM incubated for 48 hrs by sulforhodamine B assay relative to control; conditions: MDA-MB-468, 48 h, read-out: Activity
PC-3 = experiment: Growth inhibition of human PC3 cells assessed as cell growth at 10 uM incubated for 48 hrs by sulforhodamine B assay relative to control; conditions: PC-3, 48 h, read-out: Activity
ACHN = experiment: Growth inhibition of human ACHN cells assessed as cell growth at 10 uM incubated for 48 hrs by sulforhodamine B assay relative to control; conditions: read-out: Activity
NCI-H226 = experiment: Growth inhibition of human NCI-H226 cells assessed as cell growth at 10 uM incubated for 48 hrs by sulforhodamine B assay relative to control; conditions: NCI-H226, 48 h, read-out: Activity
HCT-116 = experiment: Growth inhibition of human HCT116 cells assessed as cell growth at 10 uM incubated for 48 hrs by sulforhodamine B assay relative to control; conditions: HCT-116, 48 h, read-out: Activity
HOP-62 = experiment: Growth inhibition of human HOP62 cells assessed as cell growth at 10 uM incubated for 48 hrs by sulforhodamine B assay relative to control; conditions: HOP-62, 48 h, read-out: Activity
NCI/ADR-RES = experiment: Growth inhibition of human NCI/ADR-RES cells assessed as cell growth at 10 uM incubated for 48 hrs by sulforhodamine B assay relative to control; conditions: read-out: Activity
CCRF-CEM = experiment: Growth inhibition of human CCRF-CEM cells assessed as cell growth at 10 uM incubated for 48 hrs by sulforhodamine B assay relative to control; conditions: read-out: Activity
RXF 393 = experiment: Growth inhibition of human RXF393 cells assessed as cell growth at 10 uM incubated for 48 hrs by sulforhodamine B assay relative to control; conditions: RXF 393, 48 h, read-out: Activity
MDA-MB-231 = experiment: Growth inhibition of human MDA-MB-231 cells assessed as cell growth at 10 uM incubated for 48 hrs by sulforhodamine B assay relative to control; conditions: MDA-MB-231, 48 h, read-out: Activity
BT-549 = experiment: Growth inhibition of human BT549 cells assessed as cell growth at 10 uM incubated for 48 hrs by sulforhodamine B assay relative to control; conditions: BT-549, 48 h, read-out: Activity
SF-268 = experiment: Growth inhibition of human SF268 cells assessed as cell growth at 10 uM incubated for 48 hrs by sulforhodamine B assay relative to control; conditions: SF-268, 48 h, read-out: Activity
Hs-578T = experiment: Growth inhibition of human Hs 578T cells assessed as cell growth at 10 uM incubated for 48 hrs by sulforhodamine B assay relative to control; conditions: read-out: Activity
HT-29 = experiment: Growth inhibition of human HT-29 cells assessed as cell growth at 10 uM incubated for 48 hrs by sulforhodamine B assay relative to control; conditions: HT-29, 48 h, read-out: Activity
SNB-75 = experiment: Growth inhibition of human SNB75 cells assessed as cell growth at 10 uM incubated for 48 hrs by sulforhodamine B assay relative to control; conditions: SNB-75, 48 h, read-out: Activity
OVCAR-5 = experiment: Growth inhibition of human OVCAR5 cells assessed as cell growth at 10 uM incubated for 48 hrs by sulforhodamine B assay relative to control; conditions: OVCAR-5, 48 h, read-out: Activity
OVCAR-4 = experiment: Growth inhibition of human OVCAR4 cells assessed as cell growth at 10 uM incubated for 48 hrs by sulforhodamine B assay relative to control; conditions: OVCAR-4, 48 h, read-out: Activity
COLO 205 = experiment: Growth inhibition of human COLO205 cells assessed as cell growth at 10 uM incubated for 48 hrs by sulforhodamine B assay relative to control; conditions: COLO 205, 48 h, read-out: Activity
T47D = experiment: Growth inhibition of human T47D cells assessed as cell growth at 10 uM incubated for 48 hrs by sulforhodamine B assay relative to control; conditions: read-out: Activity
HOP-92 = experiment: Growth inhibition of human HOP92 cells assessed as cell growth at 10 uM incubated for 48 hrs by sulforhodamine B assay relative to control; conditions: HOP-92, 48 h, read-out: Activity
SK-MEL-5 = experiment: Growth inhibition of human SK-MEL-5 cells assessed as cell growth at 10 uM incubated for 48 hrs by sulforhodamine B assay relative to control; conditions: SK-MEL-5, 48 h, read-out: Activity
NCI-H23 = experiment: Growth inhibition of human NCI-H23 cells assessed as cell growth at 10 uM incubated for 48 hrs by sulforhodamine B assay relative to control; conditions: NCI-H23, 48 h, read-out: Activity
HCC 2998 = experiment: Growth inhibition of human HCC2998 cells assessed as cell growth at 10 uM incubated for 48 hrs by sulforhodamine B assay relative to control; conditions: HCC 2998, 48 h, read-out: Activity
SF-539 = experiment: Growth inhibition of human SF539 cells assessed as cell growth at 10 uM incubated for 48 hrs by sulforhodamine B assay relative to control; conditions: SF-539, 48 h, read-out: Activity
DU-145 = experiment: Growth inhibition of human DU145 cells assessed as cell growth at 10 uM incubated for 48 hrs by sulforhodamine B assay relative to control; conditions: DU-145, 48 h, read-out: Activity
A498 = experiment: Growth inhibition of human A498 cells assessed as cell growth at 10 uM incubated for 48 hrs by sulforhodamine B assay relative to control; conditions: A498, 48 h, read-out: Activity
UO-31 = experiment: Growth inhibition of human UO31 cells assessed as cell growth at 10 uM incubated for 48 hrs by sulforhodamine B assay relative to control; conditions: UO-31, 48 h, read-out: Activity
UACC-62 = experiment: Growth inhibition of human UACC62 cells assessed as cell growth at 10 uM incubated for 48 hrs by sulforhodamine B assay relative to control; conditions: UACC-62, 48 h, read-out: Activity
NCI-H522 = experiment: Growth inhibition of human NCI-H522 cells assessed as cell growth at 10 uM incubated for 48 hrs by sulforhodamine B assay relative to control; conditions: NCI-H522, 48 h, read-out: Activity
Malme-3M = experiment: Growth inhibition of human MALME-3M cells assessed as cell growth at 10 uM incubated for 48 hrs by sulforhodamine B assay relative to control; conditions: read-out: Activity
M14 = experiment: Growth inhibition of human M14 cells assessed as cell growth at 10 uM incubated for 48 hrs by sulforhodamine B assay relative to control; conditions: M14, 48 h, read-out: Activity
OVCAR-8 = experiment: Growth inhibition of human OVCAR8 cells assessed as cell growth at 10 uM incubated for 48 hrs by sulforhodamine B assay relative to control; conditions: OVCAR-8, 48 h, read-out: Activity
MDA-MB-435 = experiment: Growth inhibition of human MDA-MB-435 cells assessed as cell growth at 10 uM incubated for 48 hrs by sulforhodamine B assay relative to control; conditions: MDA-MB-435, 48 h, read-out: Activity

| SMILES | growth at 10 µM (MDA-MB-468) | growth at 10 µM (PC-3) | growth at 10 µM (ACHN) | growth at 10 µM (NCI-H226) | growth at 10 µM (HCT-116) | growth at 10 µM (HOP-62) | growth at 10 µM (NCI/ADR-RES) | growth at 10 µM (CCRF-CEM) | growth at 10 µM (RXF 393) | growth at 10 µM (MDA-MB-231) | growth at 10 µM (BT-549) | growth at 10 µM (SF-268) | growth at 10 µM (Hs-578T) | growth at 10 µM (HT-29) | growth at 10 µM (SNB-75) | growth at 10 µM (OVCAR-5) | growth at 10 µM (OVCAR-4) | growth at 10 µM (COLO 205) | growth at 10 µM (T47D) | growth at 10 µM (HOP-92) | other results |
| --- | --- | --- | --- | --- | --- | --- | --- | --- | --- | --- | --- | --- | --- | --- | --- | --- | --- | --- | --- | --- | --- |
| CCCCOc1nc2ccc(OC)cc2cc1C1CNC(=O)c2ccccc2N1 (stereo unspecified) | 96.8% | 86.6% | 97.3% | 87.1% | 85.3% | 96% | 109% | 106% | 109% | 83.6% | 98.1% | 99% | 105% | 100% | 89.5% | 107% | 99.3% | 106% | 94.1% | 90.4% | growth at 10 µM (SK-MEL-5): 86.9%; growth at 10 µM (NCI-H23): 99.2%; growth at 10 µM (HCC 2998): 123%; growth at 10 µM (SF-539): 95.3%; growth at 10 µM (DU-145): 108%; growth at 10 µM (A498): 88.5%; growth at 10 µM (UO-31): 78.1%; growth at 10 µM (UACC-62): 76.2%; growth at 10 µM (NCI-H522): 77.4%; growth at 10 µM (Malme-3M): 123%; growth at 10 µM (M14): 99%; growth at 10 µM (OVCAR-8): 102%; growth at 10 µM (MDA-MB-435): 104% |
| CCCCOc1nc2ccccc2cc1C1CNC(=O)c2ccccc2N1 (stereo unspecified) | -1.81% | 24.7% | 46.7% | 0.7% | 15.6% | 23% | 3.84% | 12.6% | -14.3% | 47.5% | 41% | 43.6% | 34.1% | 0.87% | 3.14% | 55.3% | 47.7% | 9.84% | 20.9% | 48.9% | growth at 10 µM (SK-MEL-5): 15.6%; growth at 10 µM (NCI-H23): 23.8%; growth at 10 µM (HCC 2998): 56.5%; growth at 10 µM (SF-539): -25.5%; growth at 10 µM (DU-145): 10.7%; growth at 10 µM (A498): -11.2%; growth at 10 µM (UO-31): 41.3%; growth at 10 µM (UACC-62): 32.6%; growth at 10 µM (NCI-H522): -13.6%; growth at 10 µM (Malme-3M): 45.6%; growth at 10 µM (M14): -23.1%; growth at 10 µM (OVCAR-8): 22.4%; growth at 10 µM (MDA-MB-435): -63.8% |
